Assay in all cases: DTP human tumour cell line panel, 48 h
Experiment [1] deals with 786-0.
In experiment [2] the test system is DU-145.
For experiment [3], the system named is HOP-62.
For experiment [4], the system named is HT-29.
Experiment [5] deals with M14.
For experiment [6], the system named is MDA-MB-231.
In experiment [7] the test system is MDA-MB-435.
Experiment [8] relates to MDA-N.
Experiment [9] relates to Malme-3M.
Experiment [10] relates to NCI-H23.
Experiment [11] concerns OVCAR-5.
Experiment [12] relates to OVCAR-8.
For experiment [13], the system named is RPMI-8226.
Experiment [14] deals with RXF 393.
Experiment [15] relates to SF-539.
In experiment [16] the test system is SK-MEL-28.
Experiment [17] deals with SK-OV-3.
Experiment [18] relates to SNB-19.
Experiment [19] relates to UO-31.
Experiment [20] concerns MOLT-4.

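Grown in 96-well plates, cells were treated for 48 hours with each compound at five concentrations. Insufficient inhibition: endpoint recorded as highest concentration tested. GI50 is the concentration that inhibits growth by half.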 Activity calls are given as the source filed them. No stated cut-off is given here; in the data, active = GI50 up to about 1.1 µM and inactive = higher.

This is an account of results in ChEMBL document CHEMBL1201862, “PubChem BioAssay data set” (2004).

For orientation: GI50 means the concentration at which growth is held to half of that of the control. Take `Nc1nc(O)c2nc3c(nc2n1)C(=O)N(c1ccc(C(=O)O)cc1)C3`: the GI50 in [1] was > 100 µM (inactive); in experiment [2], > 100 µM (inactive); in experiment [3], 29.4 µM (inactive); in experiment [4], > 100 µM (inactive); in experiment [5], > 100 µM (inactive); in [6], > 100 µM (inactive). In addition, the GI50 in experiment [7], in experiment [8], in experiment [9], in experiment [10], in experiment [11] and in experiment [12] was > 100 µM (inactive) in each case. The GI50 in experiment [13], in experiment [14], in [15], in experiment [16], in [17] and in [18] was > 100 µM (inactive) throughout. Also, in [19], the GI50 is > 100 µM (inactive).
In the case of `Cc1ccc(/N=N/NCCCCN)cc1`, the GI50 in [1], in experiment [2], in experiment [3], in experiment [4], in experiment [5] and in experiment [6] was > 100 µM (inactive) in each case. The GI50 was > 100 µM (inactive) in [7]; > 100 µM (inactive) in [8]; 7.26 µM (inactive) in experiment [20]; > 100 µM (inactive) in experiment [9]; > 100 µM (inactive) in experiment [10]; > 100 µM (inactive) in experiment [11]. For the same compound, the GI50 in experiment [12] was > 100 µM (inactive); in experiment [13], 5.86 µM (inactive); in experiment [14] it was > 100 µM (inactive); in [15], > 100 µM (inactive); in [17], > 100 µM (inactive); in [18] it was 49.2 µM (inactive). Also, the GI50 in [19] is 12.2 µM (inactive).
In the case of `O=c1[nH]c2ccccc2c2nc3ccccc3n12`, the GI50 in experiment [1] was 81.8 µM (inactive); in experiment [2], > 100 µM (inactive); in [3], 38.1 µM (inactive); in experiment [4] it was 49.5 µM (inactive); in experiment [5], > 100 µM (inactive); in experiment [6], 16.9 µM (inactive). For the same compound, the GI50 was > 100 µM (inactive) in experiment [7]; > 100 µM (inactive) in experiment [8]; 36.9 µM (inactive) in [20]; 13.1 µM (inactive) in experiment [9]; 42.5 µM (inactive) in experiment [10]; > 100 µM (inactive) in experiment [11]. Besides, the GI50 in experiment [12] is > 100 µM (inactive); in [13], > 100 µM (inactive); in experiment [14], 28.7 µM (inactive); in [15], 24.4 µM (inactive); in experiment [17], 14 µM (inactive); in [18] it was > 100 µM (inactive). Further, in experiment [19], the GI50 is 8.49 µM (inactive).
`CCOC(=O)[C@H](CO)NC1=C(Cl)C(=O)c2c(O)ccc(O)c2C1=O`: the GI50 is > 10 µM (inactive) in experiment [1]; > 10 µM (inactive) in experiment [2]; > 10 µM (inactive) in experiment [3]; 5.33 µM (inactive) in experiment [4]; > 10 µM (inactive) in experiment [5]; > 10 µM (inactive) in [6]. Besides, the GI50 in experiment [7], in experiment [8], in experiment [20], in [9], in experiment [10] and in [11] was > 10 µM (inactive) throughout. The GI50 in [12], in [13], in experiment [14], in experiment [15], in experiment [16] and in [17] was > 10 µM (inactive) each time. Moreover, the GI50 in experiment [18] is > 10 µM (inactive).
For `OC(c1ccccc1)(c1cccnc1)C(O)(c1ccccc1)c1cccnc1` (stereo unspecified), the GI50 in [1], in [2], in [4], in experiment [5], in experiment [6] and in experiment [7] was > 100 µM (inactive) in each case. Also, the GI50 in experiment [8], in [9], in experiment [10], in experiment [11], in [12] and in experiment [13] was > 100 µM (inactive) each time. For the same compound, the GI50 in experiment [14], in [15], in experiment [17], in [18] and in [19] was > 100 µM (inactive) in each case.
As for `Cc1cc2c(s1)C(=O)c1sccc1C2=O`, the GI50 is 1.83 µM (inactive) in experiment [1]; 1.83 µM (inactive) in experiment [2]; 2.04 µM (inactive) in [4]; 0.176 µM (active) in experiment [5]; 1.07 µM (active) in experiment [6]; 0.177 µM (active) in experiment [7]. In addition, the 50% growth inhibitory concentration (GI50) is 0.171 µM (active) in experiment [8]; 2.3 µM (inactive) in [20]; 0.168 µM (active) in [9]; 0.171 µM (active) in experiment [10]; 1.86 µM (inactive) in experiment [11]; 0.424 µM (active) in experiment [12]. Further, the GI50 in experiment [13] is 1.88 µM (inactive); in experiment [14], 1.17 µM (inactive); in experiment [15] it was 0.248 µM (active); in [16], 0.2 µM (active); in experiment [17] it was 2.06 µM (inactive); in experiment [18] it was 1.66 µM (inactive). Moreover, the GI50 in experiment [19] is 0.805 µM (active).
Consider `FC(F)(F)c1ccc(C2ON=C(c3ccccc3)N2C23CC4CC(CC(C4)C2)C3)cc1` (stereo unspecified), for which the GI50 in [1], in experiment [2], in experiment [3], in [4], in experiment [5] and in experiment [6] was > 10 µM (inactive) each time. Also, the GI50 in [7], in experiment [8], in experiment [20], in experiment [9], in experiment [10] and in experiment [11] was > 10 µM (inactive) in each case. In addition, the GI50 in experiment [12], in [13], in experiment [14], in [15], in [16] and in [17] was > 10 µM (inactive) in each case. For the same compound, in experiment [18], the GI50 was > 10 µM (inactive).
